pIC50: −log10 of the molar value.
Test system: 958667-338-R-J2-PDC tumor spheroids viability
Test: Anticancer human tumor 958667-338-R-J2-PDC patient-derived colon adenocarcinoma cell line growth inhibition [PI3K]
Settings: spheroids with HUVEC and MSC; for pIC50: curve of first compound; for viability, T/C: stronger effect = lower value
Method in brief: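 Three cell types, namely tumor cells, endothelial cells and mesenchymal stem cells, formed each spheroid. Combinations with four PI3K inhibitors were screened at clinically achievable concentrations decreasing by half-log, and spheroid viability was recorded.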

[1] = second compound 0.0316 µM, first compound 0.0316 µM
[2] = second compound 0.0316 µM, first compound 0.1 µM
[3] = second compound 0.0316 µM, first compound 0.316 µM
[4] = second compound 0.0316 µM, first compound 1 µM
[5] = second compound 0.1 µM, first compound 0.0316 µM
[6] = second compound 0.1 µM, first compound 0.1 µM
[7] = second compound 0.1 µM, first compound 0.316 µM
[8] = second compound 0.1 µM, first compound 1 µM
[9] = second compound 0.316 µM, first compound 0.0316 µM
[10] = second compound 0.316 µM, first compound 0.1 µM
[11] = second compound 0.316 µM, first compound 0.316 µM
[12] = second compound 0.316 µM, first compound 1 µM
[13] = second compound 1 µM, first compound 0.0316 µM
[14] = second compound 1 µM, first compound 0.1 µM
[15] = second compound 1 µM, first compound 0.316 µM
[16] = second compound 1 µM, first compound 1 µM
[17] = second compound 0.00316 µM, first compound 0.0316 µM
[18] = second compound 0.00316 µM, first compound 0.1 µM
[19] = second compound 0.00316 µM, first compound 0.316 µM
[20] = second compound 0.00316 µM, first compound 1 µM
[21] = second compound 0.00316 µM, first compound 3.16 µM
[22] = second compound 0.00316 µM, first compound 10 µM
[23] = second compound 0.01 µM, first compound 0.0316 µM
[24] = second compound 0.01 µM, first compound 0.1 µM
[25] = second compound 0.01 µM, first compound 0.316 µM
[26] = second compound 0.01 µM, first compound 1 µM
[27] = second compound 0.01 µM, first compound 3.16 µM
[28] = second compound 0.01 µM, first compound 10 µM
[29] = second compound 0.0316 µM, first compound 3.16 µM
[30] = second compound 0.0316 µM, first compound 10 µM
[31] = second compound 0.1 µM, first compound 3.16 µM
[32] = second compound 0.1 µM, first compound 10 µM
[33] = second compound 0.316 µM, first compound 3.16 µM
[34] = second compound 0.316 µM, first compound 10 µM
[35] = second compound 1 µM, first compound 3.16 µM
[36] = second compound 1 µM, first compound 10 µM
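Note: spheroids exposed to compounds for seven days before readout.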

`CCN1CCN(Cc2ccc(Nc3ncc(F)c(-c4cc(F)c5nc(C)n(C(C)C)c5c4)n3)nc2)CC1` + Cc1nc(NC(=O)N2CCCC2C(N)=O)sc1-c1ccnc(C(C)(C)C(F)(F)F)c1 gave a pIC50 (second compound 0.0316 µM) of under 6.00, a pIC50 (second compound 0.1 µM) of under 6.00 and a pIC50 (second compound 0.316 µM) of under 6.00. For the same molecule, the pIC50 (second compound 1 µM) was 6.16, the pIC50 (second compound 3.16 µM) was 7.53 and the pIC50 (second compound 10 µM) was 7.52. It also gave a viability, T/C (second compound 0.0316 µM, first compound 0.00316 µM) of 96.6%, a viability, T/C (second compound 0.0316 µM, first compound 0.01 µM) of 108% and a viability, T/C [1] of 93.5%. The viability, T/C [2] was 81.5%, the viability, T/C [3] was 64.7% and the viability, T/C [4] was 73.9%. For the same molecule, the viability, T/C (second compound 0.1 µM, first compound 0.00316 µM) was 97.6%, the viability, T/C (second compound 0.1 µM, first compound 0.01 µM) was 112% and the viability, T/C [5] was 85%. The viability, T/C [6] was 77.1%, the viability, T/C [7] was 86.1% and the viability, T/C [8] was 70.4%. It also gave a viability, T/C (second compound 0.316 µM, first compound 0.00316 µM) of 85.5%, a viability, T/C (second compound 0.316 µM, first compound 0.01 µM) of 86% and a viability, T/C [9] of 79.7%. For the same molecule, the viability, T/C [10] was 84.6%, the viability, T/C [11] was 68% and the viability, T/C [12] was 61.8%. It also gave a viability, T/C (second compound 1 µM, first compound 0.00316 µM) of 94.5%, a viability, T/C (second compound 1 µM, first compound 0.01 µM) of 67.4% and a viability, T/C [13] of 72.8%. For the same molecule, the viability, T/C [14] was 59.7%, the viability, T/C [15] was 57.4% and the viability, T/C [16] was 45.5%. It also gave a viability, T/C (second compound 3.16 µM, first compound 0.00316 µM) of 66.4%, a viability, T/C (second compound 3.16 µM, first compound 0.01 µM) of 86.1% and a viability, T/C (second compound 3.16 µM, first compound 0.0316 µM) of 48.1%. The viability, T/C (second compound 3.16 µM, first compound 0.1 µM) was 47.1%, the viability, T/C (second compound 3.16 µM, first compound 0.316 µM) was 47.9% and the viability, T/C (second compound 3.16 µM, first compound 1 µM) was 35.8%. For the same molecule, the viability, T/C (second compound 10 µM, first compound 0.00316 µM) was 54.2%, the viability, T/C (second compound 10 µM, first compound 0.01 µM) was 60.8% and the viability, T/C (second compound 10 µM, first compound 0.0316 µM) was 44.7%. For the same molecule, the viability, T/C (second compound 10 µM, first compound 0.1 µM) was 46.5%, the viability, T/C (second compound 10 µM, first compound 0.316 µM) was 36.5% and the viability, T/C (second compound 10 µM, first compound 1 µM) was 31.3%.
`CC1(C)CCC(Nc2ncc(C(F)(F)F)c(-c3c[nH]c4c(P(C)(C)=O)c(C#N)ccc34)n2)CN1` (stereo unspecified) + COc1c(OCCCN2CCOCC2)ccc2c3n(c(=NC(=O)c4cnc(N)nc4)nc12)CCN3 was tested, and the pIC50 (second compound 0.00316 µM) was 5.48, the pIC50 (second compound 0.01 µM) was 5.70 and the pIC50 (second compound 0.0316 µM) was 5.43. It also gave a pIC50 (second compound 0.1 µM) of 5.85, a pIC50 (second compound 0.316 µM) of over 7.50 and a pIC50 (second compound 1 µM) of over 7.50. The viability, T/C [17] was 90%, the viability, T/C [18] was 94.7% and the viability, T/C [19] was 71.1%. The viability, T/C [20] was 55.7%, the viability, T/C [21] was 66.4% and the viability, T/C [22] was 22.9%. The viability, T/C [23] was 105%, the viability, T/C [24] was 85.8% and the viability, T/C [25] was 68.2%. The viability, T/C [26] was 59.8%, the viability, T/C [27] was 58.7% and the viability, T/C [28] was 19.4%. For the same molecule, the viability, T/C [1] was 72.5%, the viability, T/C [2] was 71.5% and the viability, T/C [3] was 65.9%. For the same molecule, the viability, T/C [4] was 55%, the viability, T/C [29] was 60.4% and the viability, T/C [30] was 20.9%. It also gave a viability, T/C [5] of 69%, a viability, T/C [6] of 71.9% and a viability, T/C [7] of 48.2%. It also gave a viability, T/C [8] of 53.7%, a viability, T/C [31] of 44.8% and a viability, T/C [32] of 4.88%. It also gave a viability, T/C [9] of 46.3%, a viability, T/C [10] of 42.9% and a viability, T/C [11] of 36.8%. It also gave a viability, T/C [12] of 39.5%, a viability, T/C [33] of 25.6% and a viability, T/C [34] of 1.02%. It also gave a viability, T/C [13] of 19.9%, a viability, T/C [14] of 16.8% and a viability, T/C [15] of 14.9%. It also gave a viability, T/C [16] of 15.8%, a viability, T/C [35] of 10.2% and a viability, T/C [36] of 1.04%.
In the case of `CC(Cn1ccc(-c2ccc(C#N)c(Cl)c2)n1)NC(=O)c1cc(C(C)O)[nH]n1` (stereo unspecified) + CC(Nc1ccc2c(c1)OCCn1cc(N3C(=O)OCC3C(F)F)nc1-2)C(N)=O, the pIC50 (second compound 0.00316 µM) was under 5.00, the pIC50 (second compound 0.01 µM) was under 5.00 and the pIC50 (second compound 0.0316 µM) was under 5.00. For the same molecule, the pIC50 (second compound 0.1 µM) was under 5.00, the pIC50 (second compound 0.316 µM) was under 5.00 and the pIC50 (second compound 1 µM) was under 5.00. It also gave a viability, T/C [17] of 118%, a viability, T/C [18] of 111% and a viability, T/C [19] of 126%. The viability, T/C [20] was 117%, the viability, T/C [21] was 84.7% and the viability, T/C [22] was 99.2%. The viability, T/C [23] was 92.7%, the viability, T/C [24] was 106% and the viability, T/C [25] was 77.4%. The viability, T/C [26] was 91.4%, the viability, T/C [27] was 90.6% and the viability, T/C [28] was 90.5%. It also gave a viability, T/C [1] of 89.8%, a viability, T/C [2] of 99.9% and a viability, T/C [3] of 97.8%. The viability, T/C [4] was 93%, the viability, T/C [29] was 95% and the viability, T/C [30] was 75.2%. For the same molecule, the viability, T/C [5] was 111%, the viability, T/C [6] was 88.9% and the viability, T/C [7] was 81.1%. It also gave a viability, T/C [8] of 78.6%, a viability, T/C [31] of 91.1% and a viability, T/C [32] of 82.4%. The viability, T/C [9] was 80%, the viability, T/C [10] was 49.7% and the viability, T/C [11] was 84.5%. The viability, T/C [12] was 63.6%, the viability, T/C [33] was 63.7% and the viability, T/C [34] was 78.8%. It also gave a viability, T/C [13] of 64.2%, a viability, T/C [14] of 61.2% and a viability, T/C [15] of 66.1%. For the same molecule, the viability, T/C [16] was 62.8%, the viability, T/C [35] was 55.7% and the viability, T/C [36] was 49.8%.
